Experimental data as given in patent publication US8410168B2, “Methods and compositions for treating ophthalmic conditions with retinyl derivatives” (Acucela, Inc., priority 2004, dated 2013).

Experiments:
apo-CRALBP = target: T1, apo-CRALBP (Homo sapiens, UniProt P12271); assay: Ni+ affinity column and spectroscopic analysis of binding to CRALBP; conditions: 10 μM apo-CRALBP, 20 μM ligand
T1 construct: made in house
Protocol: In order to confirm data obtained during fluorescence analysis of HPR binding to CRALBP, a second analysis was performed using affinity chromatography and spectroscopic analysis. The recombinant apo-CRALBP was constructed with a histidine tag which is utilized to purify the protein on a Ni+ affinity column following expression cloning. Here, we utilized this feature of apo-CRALBP to specifically “trap” the protein and any protein-ligand species for spectroscopic analysis. Two binding mixtures were prepared containing apo-CRALBP (10 μM) and either 11cRAL (20 μM) or HPR (20 μM). In control experiments for the analysis of non-specific ligand binding onto the affinity matrix, we prepared two additional mixtures containing only 11cRAL (20 μM) or HPR (20 μM) in binding buffer. The binding mixtures were passed through separate Ni+ affinity columns and the columns were washed extensively to elute unbound protein and ligand. Following the addition of elution buffer, the eluted fractions were analyzed by spectroscopy. […] Instead, two absorption maxima are seen: one at 280 nm and a second at 360 nm, which is attributable to the absorption of HPR (see FIG. 14).

mice = assay: Retinoid composition, chromophore regeneration and electrophysiology in HPR-treated mice; assay type: in vivo; conditions: 10 mg/kg daily for 28 days
Description: Panels D-F of FIG. 17 are electrophysiological measurements of rod function (panel D), rod and cone function (panel E) and recovery from photobleaching (panel F).

RBP = RBP (Homo sapiens, UniProt P02753); assay: Competition binding assay, RBP-retinol/HPR, fluorescence; conditions: physiological temperature (37 C)
Description: Based upon these findings, we sought to further explore the mechanism(s) of retinol reduction during HPR treatment. A tenable hypothesis is that HPR may displace retinol by competing at the retinol binding site on RBP. […] Therefore, one can measure displacement of retinol from the RBP holoprotein by observing decreases in both protein (340 nm) and retinol (470 nm) fluorescence. We performed a competition binding assay using RBP-retinol/HPR concentrations which were similar to those determined from the 14 day trial at 20 mg/kg HPR described above. […] In the control assays, decreases in retinol fluorescence were associated with concomitant increases in protein fluorescence, see FIG. 3a. This effect was determined to be due to temperature effects as the dissociation constant of RBP-retinol increases (decreased affinity) with increased time at 37 C.

ABCA4−/− mice = assay: HPR drug holiday after 28 days of treatment; assay type: in vivo, mouse
Protocol: HPR (10 mg/kg in DMSO) was administered to ABCA4−/− mice daily for a period of 28 days. Control ABCA4−/− mice received only DMSO for the same period. […] Importantly, the observed reductions in lipofuscin autofluorescence persist long after cessation of HPR therapy. HPR (10 mg/kg), or DMSO, administration was discontinued following 28 days of treatment and re-evaluated A2E and precursor levels after 2 weeks and after 4 weeks.
We examined eyecup extracts by HPLC and employed detection by absorbance and fluorimetry. Identity of the indicated peaks was confirmed by on-line spectral analysis and by co-elution with authentic standards. […] Further, the A2E and precursor (A2PE-H2 and A2PE) levels after a […] or 28-day drug holiday remained at or near the levels immediately following 28 days of treatment (i.e., ca. 50% reduction relative to control), although after the 28-day drug holiday, the amount of A2E and precursor (A2PE-H2 and A2PE) had increased by a few percentage points relative to the 12-day drug holiday levels. […] It is clear that peak fluorescence tracks with the abundance of A2E, A2PE and A2PE-H2.
This effect cannot be attributed to long-term reductions in serum retinol as serum retinol had returned to baseline 48 hours following the last HPR dose. […] Furthermore, HPR reduces serum retinol levels, which leads to a reduction in the level of retinol in the eyes of treated animals. Once the level of retinol has been reduced in the eye, there is a time lag in the subsequent increase in retinol levels in the eye. Alone or in combination, the production of A2E, A2PE and A2PE-H2 in the eye remains low despite the absence of HPR in the serum or the eye.

[1] = HPR concentration in the RPE of treated mice; assay type: in vivo
Protocol: (§1) We examined the effects on HPR on enzymes or proteins of the visual cycle using in vitro biochemical assays. Specifically, the utilization of exogenous all-trans retinol by membranes prepared from bovine RPE was studied. […] Steady-state levels of HPR in the RPE (determined from mice which have been given 20 mg/kg HPR, i.p., daily for 28 days) range from 5-10 μM. With this in mind, we examined the effects of 10 μM HPR on production of all-trans retinyl esters and 11-cis retinol in assays similar to those described above. […] In the presence of endogenous retinoids, utilization of exogenous all-trans retinol is extremely low and 11-cis retinol is produced solely from the endogenous all-trans retinyl esters. […] Thus, the retinoic acids appear to affect at least two targets in the visual cycle. We have determined that HPR-induced reduction of 11-cis retinol biosynthesis occurs via LRAT inhibition and reduction in all-trans retinyl ester levels. In this situation, the isomerase enzyme is starved for substrate and 11-cis retinol production declines.
We performed an analysis of the dissociation constant (KD) for 11cRAL and HPR binding to apo-CRALBP (see FIG. 15). […] This calculation is based upon the ligand concentration necessary to fully quench the protein fluorescence. The data reveal that both 11cRAL and HPR quench apo-CRALBP fluorescence maximally at ˜1.5 μM. Thus, although apo-CRALBP is described as an 11 cis-specific retinoid binding protein, it appears to bind HPR as well.
A second target for HPR in the visual cycle was identified using in vitro biochemical assays. Lecithin retinol acyl transferase (LRAT) catalyzes the conversion of retinol into retinyl esters. LRAT is critical not only for retinol-retinyl ester homeostasis but also for generation of substrate for visual chromophore biosynthesis. The data shown in panel A of FIG. 16 illustrate the inhibitory effect of HPR on the rate of retinyl ester synthesis. […] In a separate study, we have determined that HPR concentrations in the RPE approach 10 μM with a 10 mg/kg dose of HPR.

[2] = system: patients with a variety of cancers; conditions: human patients; cited from earlier work
[3] = system: 11-cis retinol biosynthesis; assay: In vitro 11-cis retinol production by bovine RPE membranes; assay type: biochemical; conditions: 10 μM HPR, p<0.05
Protocol: as §1

T1 sequence (P12271 whole entry, species assumed): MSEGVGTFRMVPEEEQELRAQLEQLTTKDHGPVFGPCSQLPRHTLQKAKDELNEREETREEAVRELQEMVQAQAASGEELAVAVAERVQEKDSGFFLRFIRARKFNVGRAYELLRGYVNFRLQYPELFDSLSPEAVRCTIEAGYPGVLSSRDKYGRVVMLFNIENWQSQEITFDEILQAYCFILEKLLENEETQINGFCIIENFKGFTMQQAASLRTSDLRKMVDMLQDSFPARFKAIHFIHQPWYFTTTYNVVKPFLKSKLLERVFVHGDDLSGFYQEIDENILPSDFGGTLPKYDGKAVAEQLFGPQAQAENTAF

**Q.** For CC1=C(/C=C/C(C)=C/C=C/C(C)=C/C(=O)Nc2ccc(O)cc2)C(C)(C)CCC1 [HPR, N-(4-hydroxyphenyl)retinamide], which “binding to apo-CRALBP by absorption spectra of eluted fraction” value (apo-CRALBP) is on record?
**A.** binds apo-CRALBP

**Q.** And the “regeneration of visual chromophore” value (mice)?
**A.** does not affect

**Q.** What about the “displacement of retinol from RBP-retinol holoprotein” value (RBP) of the same molecule?
**A.** efficiently displaces retinol

**Q.** What about the “reduction of A2E and precursor (A2PE-H2 and A2PE) levels relative to control” value (ABCA4−/− mice; 10 mg/kg 28 days, then 12- or 28-day drug holiday) of the same molecule?
**A.** ca. 50%

**Q.** What about the “detection in the eyes after drug holiday” value (ABCA4−/− mice; 28-day drug holiday) of the same molecule?
**A.** unable to detect

**Q.** What about the “time for serum retinol to return to baseline after the last HPR dose” value (ABCA4−/− mice; mouse, in vivo) of the same molecule?
**A.** 48 h

**Q.** And the “HPR concentrations in the RPE” value ([1]; 10 mg/kg dose of HPR)?
**A.** ~10 µM

**Q.** And the concentration at 28 days ([1]; BL6/129, mouse, RPE (retinal pigment epithelium), intraperitoneal, 20 mg/kg HPR, i.p., daily for 28 days, read-out: steady-state levels of HPR in the RPE)?
**A.** 5 to 10 µM

**Q.** And the “concentrations of HPR in the RPE during the animal trials” value ([1]; even at the lowest dose of 2.5 mg/kg)?
**A.** exceed 30 nM

**Q.** And the “plasma concentration after high fat meals versus carbohydrate meals” value [2]?
**A.** three times greater

**Q.** And the “effect on 11-cis retinol biosynthesis” value [3]?
**A.** statistically significant inhibition
